Consider two molecules from US11197868B2, “Prevention of preterm birth (PTB) by inhibition of FKBP51” (UNIVERSITY OF SOUTH FLORIDA, priority 2017, dated 2021).

This assay has as its system FKBP51. The experiment in a line: FKBP51 protein expression in primary term decidual cell cultures by immunoblotting. It counts as cell-based. The settings on record: 24 hours. The protocol:
This example describes an analysis of FKBP51 expression in primary term decidual cells (DCs) induced by dexamethasone (DEX) (0.1 μM) or 15dPGJ2 (5 or 20 μM) or DEX+15dPGJ2 (0.1 μM+5 or +20 μM).
Glucocorticoids (e.g. dexamethasone (DEX), medroxyprogesterone acetate) are primary inducers of FKBP51 mRNA and protein expression in decidual cells (DCs). It was determined that both restrained stress-induced preterm birth and fetal growth restriction are blocked in FKBP51 knockout mice compared to WT mice. To determine the potential therapeutic impact of 15-deoxy-Δ12,14-prostaglandin J2 (15dPGJ2) on regulation of dexamethasone-induced FKBP51, primary term DC cultures (n=1) were induced by DEX (0.1 μM), 15dPGJ2 (5 or 20 μM), or DEX+15dPGJ2 (0.1 μM+5 or +20 μM) for 24 hours, and FKBP51 protein levels were then analyzed by immunoblotting, as shown in FIG. 15A.
(In general: Immunoblotting shows a protein as a band on a membrane.)

Consider `CCCCC/C=C/C=C1/C(=O)C=C[C@@H]1C/C=C\CCCC(=O)O` [15dPGJ2, 15-deoxy-Δ12,14-prostaglandin J2], for which the “decrease of FKBP51 expression compared to control” value worked out at 10% (5 μm 15dPGJ2 alone, term DC cultures (n=1)) and 18% (20 μm 15dPGJ2 alone, term DC cultures (n=1)). The “reduction of DEX-induced FKBP51 expression” value (5 μm 15dPGJ2 combined with DEX 0.1 μM, term DC cultures (n=1)) is listed as 12%. The “effect on DEX-induced FKBP51 expression” value (20 μm 15dPGJ2 combined with DEX 0.1 μM, term DC cultures (n=1)) is reported as “completely blocking DEX-induced FKBP51 expression”.

As for `C[C@@H]1C[C@H]2[C@@H]3CCC4=CC(=O)C=C[C@]4(C)[C@@]3(F)[C@@H](O)C[C@]2(C)[C@@]1(O)C(=O)CO` [DEX, dexamethasone], the “increase of FKBP51 expression compared to control” value (DEX 0.1 μM alone, primary term DC cultures (n=1)) was found to be 60%.
